Results published in US7977352B2, “Triazolopyridine compounds useful for the treatment of degenerative and inflammatory diseases” (Galapagos NV, priority 2006, dated 2011).

Experiments:
[1] = test system: MMP1 expression by activated synovial fibroblasts (RASFs); assay: MMP assay: MMP1 expression by RASFs triggered with TNF-α (MMP1 ELISA); assay type: cell-based; settings: Fibroblast, 48 h, TNF-α trigger 10 ng/mL, semi-quantitative score, read-out: REDUCTION MMP1/TNFa
Protocol: A 384-well format ELISA for measurement of MMP1 is developed. Various primary antibodies are tested, as well as various ELISA protocols. The following protocol is developed and validated to measure MMP1 levels in SF supernatant in 384 well plates: white Lumitrac 600 384 well plates (Greiner) are coated with 2 μg/mL anti-MMP1 antibody MAB1346 (Chemicon). The antibody is diluted in buffer 40 (1.21 g Tris base (Sigma), 0.58 g NaCl (Calbiochem) and 5 mL 10% NaN3 (Sigma) in 1 L milliQ water and adjusted to pH 8.5). After overnight incubation at 4° C., plates are washed with PBS (80 g NaCl, 2 g KCl (Sigma), 11.5 g Na2HPO4.7H2O and 2 g KH2PO4 in 10 L milliQ; pH 7.4) and blocked with 100 μL/well Casein buffer (2% Casein (VWR International) in PBS). Next day, casein buffer is removed from ELISA plates and replaced by 50 μL/well EC buffer (4 g casein, 2.13 g Na2HPO4 (Sigma), 2 g bovine albumin (Sigma), 0.69 g NaH2PO4.H2O (Sigma), 0.5 g CHAPS (Roche), 23.3 g NaCl, 4 mL 0.5 M EDTA pH 8 (Invitrogen), 5 mL 10% NaN3 in 1 L milliQ and adjusted to pH 7.0). 0.25 mM DTT (Sigma) is added to the thawed sample plates. After removal of the EC buffer, 20 μL of sample is transferred to the ELISA plates. After overnight incubation at 4° C. plates are washed twice with PBS and once with PBST (PBS with 0.05% Tween-20 (Sigma)) and incubated with 35 μL/well biotinylated anti-MMP1 antibody solution (R&D). This secondary antibody is diluted in buffer C (0.82 g NaH2PO4.H2O, 4.82 g Na2HPO4, 46.6 g NaCl, 20 g bovine albumin and 4 mL 0.5M EDTA pH 8 in 2 L milliQ and adjusted to pH 7.0) at a concentration of 5 μg/mL. After 2 h of incubation at RT, plates are washed as described above and incubated with 50 μL/well streptavidin-HRP conjugate (Biosource). Streptavidin-HRP conjugate is diluted in buffer C at a concentration of 0.25 μg/mL. After 45 min, plates are washed as described above and incubated for 5 min with 50 μL/well BM Chem ELISA Substrate (Roche). Readout is performed on the Luminoscan Ascent Luminometer (Labsystems) with an integration time of 200 msec or with an Envision reader (Perkin Elmer).
SFs were acquired at passage 1 from a commercial supplier (Cell applications, Inc.). SFs are cultured in DMEM supplemented with 10% heat-inactivated FBS, 1× penicillin/streptomycin (Invitrogen) at 37° C., 10% CO2 until passage 6. Aliquots of the cells are frozen and cryopreserved in liquid nitrogen. Starting from a cryopreserved aliquot, cells are further expanded by sub-culturing cells at 1/3 ratio every week. Cells between passage 10 and 12 are routinely used in compound testing according to following protocol.
Starting from the compound master stocks (all at 10 mM concentration in 100% DMSO) a 3-fold serial dilution is made in 96-well plates in 100% DMSO. Then, plates are further diluted 45-fold in M199 medium supplemented with 1% heat-inactivated FBS to obtain a intermediate work stock.
At day 1, RASFs are seeded in 96 well plates (flat bottom, tissue culture treated, Greiner) at a density of 3000 cells/well in complete synovial growth medium (Cell Applications). Day 5, the medium is completely removed from the cells, and replaced by 81 μL of M199 medium supplemented with 1% heat-inactivated FBS followed by addition of 10 μL compound out of the intermediate work stock. After an incubation period of 90 minutes, which allows the compounds to equilibrate and enter the cells, cells are stimulated with either TNF-α or ‘complex trigger’. TNF-α trigger is added in a volume of […] to obtain final concentration of 10 ng/mL. For that, TNF-α stock (PeproTech) at 10 μg/mL was diluted to 100 ng/mL TNF-a in M199 medium supplemented with 1% FBS. ‘Complex trigger’ mix is added in a volume of 20 μL to obtain a final concentration of 12.5%. For that, ‘complex trigger’ mix, is diluted to 80% with M199 medium supplemented with 1% FBS. […]

TAK1-TAB1 fusion protein = target: T1, TAK1-TAB1 fusion protein (Homo sapiens, UniProt O43318); assay: In vitro TAK1 kinase assay; assay type: biochemical; settings: casein substrate, [33P]-γ-ATP, 90 minutes at 30° C., semi-quantitative score, read-out: POTENCY TAK1 (MAP3K7)
T1 construct: purchased Upstate 14-600
T1 sequence (O43318 with tags, fused parts or gaps limits assumed): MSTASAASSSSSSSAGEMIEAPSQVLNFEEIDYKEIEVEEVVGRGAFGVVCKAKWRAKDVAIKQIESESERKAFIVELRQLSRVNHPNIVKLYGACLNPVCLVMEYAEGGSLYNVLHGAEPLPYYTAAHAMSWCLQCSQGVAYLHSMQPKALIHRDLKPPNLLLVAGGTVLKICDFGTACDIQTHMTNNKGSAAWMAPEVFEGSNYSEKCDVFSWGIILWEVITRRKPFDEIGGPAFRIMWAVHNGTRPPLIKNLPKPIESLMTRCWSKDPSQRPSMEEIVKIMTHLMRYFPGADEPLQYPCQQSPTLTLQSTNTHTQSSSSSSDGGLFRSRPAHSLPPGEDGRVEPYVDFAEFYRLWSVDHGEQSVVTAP
Protocol: For assessing TAK1 inhibition, active TAK1-TAB1 fusion protein was used from Upstate (Cat. No, 14-600). Kinase reactions are set up in 96-well polypropylene plates in 25 μL containing 0.5 mU TAK1-TAB1 fusion protein, 5mM ATP, 0.01 μCi/μL [^33P]-γ-ATP, 0.1 mg/mL casein substrate in 1× reaction buffer containing 10 mM MOPS pH 7.0, 1 mM EDTA.
Starting from the compound master stocks (all at 10 mM concentration in 100% DMSO) a 3-fold serial dilution is made in 96-well plates in 100% DMSO. Plates are further diluted […] in H2O containing 3.5% DMSO, to obtain an intermediate work stock with compounds at 5× the final assay concentration in 5% DMSO.
5 μL of the intermediate stock is transferred into V-bottom 96 well polypropylene plates and 11 μL of Enzyme mix is added. Enzyme mix is made by combining 5 μL 5× reaction buffer ([…] pH 7.0, 1 mM EDTA), 5 μL casein (Sigma) diluted in H20 to 0.5 mg/mL and 1 μL of TAK1-TAB1 fusion protein that was prediluted to 0.5 mU/μL in 1× enzyme dilution buffer (20 mM MOPS pH 7.0, 0.1 mM EDTA, 0.01% Brij-35, 5% glycerol, 1 mM DTT, 1 mg/ml BSA).
The reactions are started by the addition of 9 μL of mixture containing ATP (20.83 uM) and [^33P]-γ-ATP (0.028 μCi/μL).
The assay is stopped 90 minutes after incubation at 30° C. by the addition of 25 μL phosphoric acid (150 mM). The label incorporated into the casein substrate is separated from labeled unincorporated ATP by filtration onto 96-well filter plates using a harvester device. After 6 washes with 75 mM phosphoric acid, the bottom of the filter plates are sealed, and incorporated label is quantified after addition of 40 μL scintillation fluid using TopCount.

Structure (SMILES) | IC50 [1] | IC50 (TAK1-TAB1 fusion protein)
CCN1CCN(c2ccc(Nc3ccc(-c4ccnc(OC)c4)n4ncnc34)cc2)CC1 [Example 26, N-[4-(4-ethylpiperazin-1-yl)phenyl]-5-(2-methoxypyridin-4-yl)[1,2,4]triazolo[1,5-a]pyridin-8-amine] | 1 to 5 µM | > 10 µM
CCCN1CCN(c2ccc(Nc3ccc(-c4ccnc(OC)c4)n4ncnc34)cc2)CC1 [Example 27, 5-(2-methoxypyridin-4-yl)-N-[4-(4-propylpiperazin-1-yl)phenyl][1,2,4]triazolo[1,5-a]pyridin-8-amine] | 1 to 5 µM | > 10 µM
CCC(CC)N1CCN(c2ccc(Nc3ccc(-c4ccnc(OC)c4)n4ncnc34)cc2)CC1 [Example 28, N-{4-[4-(1-ethylpropyl)piperazin-1-yl]phenyl}-5-(2-methoxypyridin-4-yl)[1,2,4]triazolo[1,5-a]pyridin-8-amine] | 1 to 5 µM | > 10 µM
COc1cc(-c2ccc(Nc3ccc(N4CCN(CCC(C)C)CC4)cc3)c3ncnn23)ccn1 [Example 29, 5-(2-methoxypyridin-4-yl)-N-{4-[4-(3-methylbutyl)piperazin-1-yl]phenyl}[1,2,4]triazolo[1,5-a]pyridin-8-amine] | 1 to 5 µM | > 10 µM
COc1cc(-c2ccc(Nc3ccc(N4CCN(C5CC5)CC4)cc3)c3ncnn23)ccn1 [Example 30, N-[4-(4-cyclopropylpiperazin-1-yl)phenyl]-5-(2-methoxypyridin-4-yl)[1,2,4]triazolo[1,5-a]pyridin-8-amine] | 1 to 5 µM | > 10 µM
COc1cc(-c2ccc(Nc3ccc(N4CCN(C5CCC5)CC4)cc3)c3ncnn23)ccn1 [Example 31, N-[4-(4-cyclobutylpiperazin-1-yl)phenyl]-5-(2-methoxypyridin-4-yl)[1,2,4]triazolo[1,5-a]pyridin-8-amine] | 5 to 10 µM | > 10 µM
COc1cc(-c2ccc(Nc3ccc(N4CCN(C5CCCCC5)CC4)cc3)c3ncnn23)ccn1 [Example 32, N-[4-(4-cyclohexylpiperazin-1-yl)phenyl]-5-(2-methoxypyridin-4-yl)[1,2,4]triazolo[1,5-a]pyridin-8-amine] | 5 to 10 µM | > 10 µM
O=c1cc(-c2ccc(Nc3ccc(N4CCNCC4)cc3)c3ncnn23)cc[nH]1 [Example 33, 4-{8-[(4-piperazin-1-ylphenyl)amino][1,2,4]triazolo[1,5-a]pyridin-5-yl}pyridin-2(1H)-one] | 1 to 5 µM | < 0.5 µM
CCC(CC)N1CCN(c2ccc(Nc3ccc(-c4cn[nH]c4)n4ncnc34)cc2)CC1 [Example 34, N-{4-[4-(1-ethylpropyl)piperazin-1-yl]phenyl}-5-(1H-pyrazol-4-yl)[1,2,4]triazolo[1,5-a]pyridin-8-amine] | 1 to 5 µM | < 0.5 µM
c1nc2c(Nc3ccc(N4CCN(C5CCC5)CC4)cc3)ccc(-c3cn[nH]c3)n2n1 [Example 35, N-[4-(4-cyclobutylpiperazin-1-yl)phenyl]-5-(1H-pyrazol-4-yl)[1,2,4]triazolo[1,5-a]pyridin-8-amine] | > 10 µM | < 0.5 µM
NC(=O)c1cccc(-c2ccc(Nc3ccc(N4CCOCC4)cc3)c3ncnn23)c1 [Example 43, 3-{8-[(4-morpholin-4-ylphenyl)amino][1,2,4]triazolo[1,5-a]pyridin-5-yl}benzamide] | > 10 µM | > 10 µM
CC(C)N1CCN(c2ccc(Nc3ccc(-c4cccc(C(N)=O)c4)n4ncnc34)cc2)CC1 [Example 44, 3-(8-{[4-(4-isopropylpiperazin-1-yl)phenyl]amino}[1,2,4]triazolo[1,5-a]pyridin-5-yl)benzamide] | 1 to 5 µM | > 10 µM
NC(=O)c1cc(-c2ccc(Nc3ccc(N4CCOCC4)cc3)c3ncnn23)ccc1F [Example 45, 2-fluoro-5-{8-[(4-morpholin-4-ylphenyl)amino][1,2,4]triazolo[1,5-a]pyridin-5-yl}benzamide] | > 10 µM | > 10 µM
CC(C)N1CCN(c2ccc(Nc3ccc(-c4ccc(F)c(C(N)=O)c4)n4ncnc34)cc2)CC1 [Example 46, 2-fluoro-5-(8-{[4-(4-isopropylpiperazin-1-yl)phenyl]amino}[1,2,4]triazolo[1,5-a]pyridin-5-yl)benzamide] | > 10 µM | > 10 µM
c1cc(-c2ccc(Nc3ccc(N4CCOCC4)cc3)c3ncnn23)c2cc[nH]c2c1 [Example 48, 5-(1H-indol-4-yl)-N-(4-morpholin-4-ylphenyl)[1,2,4]triazolo[1,5-a]pyridin-8-amine] | 1 to 5 µM | > 10 µM
CC(C)N1CCN(c2ccc(Nc3ccc(-c4cccc5[nH]ccc45)n4ncnc34)cc2)CC1 [Example 49, 5-(1H-indol-4-yl)-N-[4-(4-isopropylpiperazin-1-yl)phenyl][1,2,4]triazolo[1,5-a]pyridin-8-amine] | > 10 µM | 1 to 5 µM
c1nc2c(Nc3ccc(N4CCOCC4)cc3)ccc(-c3ccc4[nH]ccc4c3)n2n1 [Example 50, 5-(1H-indol-5-yl)-N-(4-morpholin-4-ylphenyl)[1,2,4]triazolo[1,5-a]pyridin-8-amine] | 1 to 5 µM | > 10 µM
